# Measurements from patent US20120277286A1, “COMPOSITIONS AND METHODS FOR THE TREATMENT OR PREVENTION OF MITOCHONDRIAL DISEASES” (The Government of the USA, as represented by the Secretary, …, priority 2009, published 2012).
# Tests used:
# Format in all cases: cell-based
# [1] = system: HeLa cells; assay: PINK1-YFP imaging and colocalization in HeLa cells; settings: live imaging, 10 μM CCCP
# Method: (§1) Confocal microscopy of fixed samples, scoring of Parkin recruitment and Parkininduced mitophagy, and live cell imaging were performed as described previously (Narendra (2008) J Cell Biol 183: 795-803). Experiments in Mfn1/2 null cells were performed as described previously with minor modifications.
# as §1, with “Parkin-induced” for “Parkininduced”, “imageing” for “imaging”, “modifications described in the supplemental methods (Narendra (2008) J Cell Biol 183: 795-803).” for “modifications.”
# [2] = system: HEK293 cells; assay: Endogenous Parkin localization by immunostaining after depolarization; settings: 10 μM CCCP
# Method: Mitochondrial fission has been linked to the function of Parkin and to the autophagy of small defective mitochondria that lack membrane potential. To test whether mitochondrial depolarization causes Parkin accumulation on mitochondria, HEK293 cells were treated with the mitochondrial uncoupler carbonyl cyanide m-chlorophenylhydrazone (CCCP). Within 1 hour of adding CCCP, endogenous Parkin was recruited to mitochondria in the majority of cells (FIG. 1B) and increased appearance in the heavy membrane pellet on Western blots (FIG. 1C). […] As with endogenous Parkin in HEK293 cells, CCCP exposure induced the redistribution of YFP-Parkin from the cytosol to the mitochondria (FIGS. 1E and F). […] The mitochondrial translocation of Parkin caused by mitochondrial depolarization was also assayed by fluorescence loss in photobleaching (FLIP).
# Cultured cells seeded in borosilicate chamber slides (Thermo Fisher Scientific) were transfected or cotransfected with YFP-Parkin, ECFP-Parkin, mCherry-Parkin, DsRed-Mito (Clontech Laboratories, Inc.), pcDNA3.1 (Invitrogen), vMIA, and/or Drp1K38A constructs using Fugene 6 (Roche). Parkin-myc was a gift from M. Cookson (National Institutes of Health, Bethesda, Md.). Cells were fixed 12-24 hours after transfection with 4% paraformaldehyde in PBS. […]
# [3] = system: M17 human neuroblastoma cells; assay: Parkin-induced mitophagy in M17 cells; settings: control shRNA (Parkin line) or PINK1 shRNA, 10 μM CCCP, 24 hours
# Description: HeLa YFP-Parkin, PINK1+/+ SV40 transformed MEFs cells, PINK1−/− SV40 transformed MEF, M17 neuroblastoma control shRNA, M17 neuroblastoma PINK1, and Mfn1/2−/− MEF cell lines have been described previously (Narendra (2008) J Cell Biol 183: 795-803). PINK1+/+ and PINK1−/− primary MEFs were isolated from embryos using a standard protocol (Gautier (2008) Proc Natl Acad Sci USA 105: 11364-11369). Parkin+/+ and Parkin−/− transformed MEFs were created by isolation of primary cells from embryos of B6.129S4-Park2tm1Shn/J mice (Jackson Labs), using a standard protocol (Gautier (2008) Proc Natl Acad Sci USA 105: 11364-11369), followed by retroviral transduction of SV40 (Applied Biological Materials, Inc.). YFP-Parkin, YFPParkin mutants, mCherry-Parkin, PINK1-YFP, PINK1 KD-YFP, PINK1 Δ1-110-YFP, and Opa3-PINK1 Δ1-110-YFP are in C1 or N1 Clontech vectors. PINK1WT-V5, PINK1 KD-V5, and PINK1 Δ1-156-V5 are in pDest40 vector (Invitrogen). PINK1 patient mutations are in pLenti-V5 vector (Invitrogen). PINK1-myc is in a pCMBTNT vector (Promega).
# as §1, with “modifications. […]” for “modifications.”
Molecule,time when increase of PINK1-YFP expression was first detectable [1],time to recruitment of endogenous Parkin to mitochondria in the majority of cells [2],cells with complete loss of mitochondria [3]
"N#CC(C#N)=NNc1cccc(Cl)c1 [CCCP, carbonyl cyanide m-chlorophenylhydrazone]",1 to 5 min,≤ 1 h,
"YFP-Parkin: YFP-tagged Parkin E3 ligase expressed from a transfected vector (protein, UniProt O60260 1-465, looked up, YFP fusion, YFP-tagged Parkin E3 ligase expressed from a transfected vector) E3 ubiquitin-protein ligase …: MIVFVRFNSSHGFPVEVDSDTSIFQLKEVVAKRQGVPADQLRVIFAGKELRNDWTVQNCDLDQQSIVHIVQRPWRKGQEMNATGGDDPRNAAGGCEREPQSLTRVDLSSSVLPGDSVGLAVILHTDSRKDSPPAGSPAGRSIYNSFYVYCKGPCQRVQPGKLRVQCSTCRQATLTLTQGPSCWDDVLIPNRMSGECQSPHCPGTSAEFFFKCGAHPTSDKETSVALHLIATNSRNITCITCTDVRSPVLVFQCNSRHVICLDCFHLYCVTRLNDRQFVHDPQLGYSLPCVAGCPNSLIKELHHFRILGEEQYNRYQQYGAEECVLQMGGVLCPRPGCGAGLLPEPDQRKVTCEGGNGLGCGFAFCRECKEAYHEGECSAVFEASGTTTQAYRVDERAAEQARWEAASKETIKKTTKPCPRCHVPVEKNGGCMHMKCPQPQCRLEWCWNCGCEWNRVCMGDHWFDV",,,27.1±8.6%
